The values below come from patent EP0231671B1, “Gonatriene derivatives and process for preparing them” (MITSUBISHI KASEI CORPORATION, priority 1985, dated 1987).

This experiment has as its system female rats. Description: Anti-gonadotropic activity: ovary weight after 14 days of oral administration, test group compared with control group. Format: in vivo. More on the design: key: -: no effective; +: effective; ++: very effective. The conditions noted are these: suspended in 10 % ethanol-containing cotton seed oil, ovary weight vs control group. The method, then:
Each compound obtained in Examples and suspended in a 10 % ethanol-containing cotton seed oil was orally administrated to female rats in a dose of 0.1, 1 or 10 mg/kg for 14 days. While, for the control group, only the cotton seed oil was orally administrated for the same period.
After the completion of the administration, the ovary of each rat was weighted. From the comparison of the weight in the test group with that in the control group, the anti-gonadotropic activity of the gonatriene compound of this invention was evaluated.

As to `C[C@]12C=CC3=C4CCC(=O)C=C4CC[C@H]3[C@@H]1CC[C@@]2(O)CCl` [Example 1, 17α-chloromethyl-17β-hydroxy-13β-methyl-gona-4.9.11-triene-3-one], the anti-gonadotropic activity entry reads like this: (0.1 mg/kg for 14 days) “-”; (10 mg/kg for 14 days) “++”.
With `C[C@]12C=CC3=C4CCC(=O)C=C4CC[C@H]3[C@@H]1CC[C@@]2(O)CC#N` [Example 2, 17α-cyanomethyl-17β-hydroxy-13β-methyl-gona-4,9,11-triene-3-one], the anti-gonadotropic activity result by setting is: (0.1 mg/kg for 14 days) “-”; (1 mg/kg for 14 days) “+”; (10 mg/kg for 14 days) “++”.
For `CC[C@]12C=CC3=C4CCC(=O)C=C4CC[C@H]3[C@@H]1CC[C@@]2(O)CC#N` [Example 3, 17α-cyanomethyl-17β-hydroxy-13β-ethyl-gona-4,9,11-triene-3-one], in that order: “-”, “+” and “++”.
For `CC[C@]12C=CC3=C4CCC(=O)C=C4CC[C@H]3[C@@H]1CC[C@@]2(O)CCl` [Example 4, 17α-chloromethyl-17β-hydroxy-13β-ethyl-gona-4,9,11-triene-3-one], in that order: “-”, “+” and “++”.
For the molecule `CC[C@]12C=CC3=C4CCC(=O)C=C4CC[C@H]3[C@@H]1CC[C@@]2(O)COC` [Example 6, 17α-methoxymethyl-17β-hydroxy-13β-ethyl-gona-4,9,11-triene-3-one], the anti-gonadotropic activity entry (10 mg/kg for 14 days) is “++”.
Regarding `CC[C@]12C=CC3=C4CCC(=O)C=C4CC[C@H]3[C@@H]1CC[C@@]2(O)CSC` [Example 7, 17α-methylthiomethyl-17β-hydroxy-13β-ethyl-aona-4.9.11-triene-3-one], the anti-gonadotropic activity result by setting is: (0.1 mg/kg for 14 days) “-”; (10 mg/kg for 14 days) “++”.
As for `CC[C@]12C=CC3=C4CCC(=O)C=C4CC[C@H]3[C@@H]1CC[C@@]2(O)CSC#N` [Example 9, 17α-thiocyanatemethyl-17β-hydroxy-13βethyl-gona-4,9,11-triene-3-one], the anti-gonadotropic activity entry is recorded as “++” (1 mg/kg for 14 days) and “++” (10 mg/kg for 14 days).
